Test results reported in ChEMBL document CHEMBL1134077, “Synthesis of potent and selective dopamine D(4) antagonists as candidate radioligands” (Bioorg Med Chem Lett, 2001).

Tests used:
D(3) dopamine receptor = D(3) dopamine receptor (Rattus norvegicus, UniProt P19020); assay: In vitro binding affinity to cloned rat Dopamine receptor D3 measured by displacement of the radioligand [3H]sulpiride
[1] = biological target: T1, 5-hydroxytryptamine receptor 1D (Homo sapiens, UniProt P28221); assay: In vitro binding affinity to human 5-hydroxytryptamine 1D receptor
[2] = biological target: T2, Muscarinic acetylcholine receptor M2 (Homo sapiens, UniProt P08172); assay: Binding affinity to cloned Muscarinic acetylcholine receptor M2
T2 sequence (P08172 whole entry): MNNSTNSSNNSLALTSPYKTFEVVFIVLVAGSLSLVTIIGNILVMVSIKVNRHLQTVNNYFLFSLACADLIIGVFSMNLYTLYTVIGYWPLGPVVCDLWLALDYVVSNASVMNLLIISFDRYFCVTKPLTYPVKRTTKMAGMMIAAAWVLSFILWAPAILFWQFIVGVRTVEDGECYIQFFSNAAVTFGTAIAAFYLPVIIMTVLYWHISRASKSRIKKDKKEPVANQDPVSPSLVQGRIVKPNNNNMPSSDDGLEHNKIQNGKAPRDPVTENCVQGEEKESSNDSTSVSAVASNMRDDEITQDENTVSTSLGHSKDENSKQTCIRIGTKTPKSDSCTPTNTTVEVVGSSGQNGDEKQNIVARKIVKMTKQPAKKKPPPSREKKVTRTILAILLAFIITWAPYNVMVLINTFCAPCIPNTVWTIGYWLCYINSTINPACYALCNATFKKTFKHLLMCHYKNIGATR

[3] = biological target: T3, Muscarinic acetylcholine receptor M5 (Homo sapiens, UniProt P08912); assay: Binding affinity to cloned Muscarinic acetylcholine receptor M5
T3 sequence (P08912 whole entry): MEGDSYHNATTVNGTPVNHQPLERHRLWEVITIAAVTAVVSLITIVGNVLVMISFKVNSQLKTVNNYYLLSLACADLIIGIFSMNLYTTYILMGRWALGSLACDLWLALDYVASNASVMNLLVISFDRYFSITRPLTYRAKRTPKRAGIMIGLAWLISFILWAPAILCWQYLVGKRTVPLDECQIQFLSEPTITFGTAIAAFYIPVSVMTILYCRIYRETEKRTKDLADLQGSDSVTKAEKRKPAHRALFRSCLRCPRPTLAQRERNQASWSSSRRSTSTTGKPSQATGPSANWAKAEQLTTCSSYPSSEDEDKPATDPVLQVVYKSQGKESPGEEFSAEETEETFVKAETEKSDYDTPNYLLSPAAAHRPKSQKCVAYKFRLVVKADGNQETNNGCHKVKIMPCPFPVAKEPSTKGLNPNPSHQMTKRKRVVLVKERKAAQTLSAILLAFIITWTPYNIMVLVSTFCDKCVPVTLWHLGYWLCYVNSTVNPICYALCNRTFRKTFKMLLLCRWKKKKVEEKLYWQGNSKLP

[4] = biological target: T4, Muscarinic acetylcholine receptor M1 (Homo sapiens, UniProt P11229); assay: (§1) Binding affinity to cloned Muscarinic acetylcholine receptor M1
T4 sequence (P11229 whole entry): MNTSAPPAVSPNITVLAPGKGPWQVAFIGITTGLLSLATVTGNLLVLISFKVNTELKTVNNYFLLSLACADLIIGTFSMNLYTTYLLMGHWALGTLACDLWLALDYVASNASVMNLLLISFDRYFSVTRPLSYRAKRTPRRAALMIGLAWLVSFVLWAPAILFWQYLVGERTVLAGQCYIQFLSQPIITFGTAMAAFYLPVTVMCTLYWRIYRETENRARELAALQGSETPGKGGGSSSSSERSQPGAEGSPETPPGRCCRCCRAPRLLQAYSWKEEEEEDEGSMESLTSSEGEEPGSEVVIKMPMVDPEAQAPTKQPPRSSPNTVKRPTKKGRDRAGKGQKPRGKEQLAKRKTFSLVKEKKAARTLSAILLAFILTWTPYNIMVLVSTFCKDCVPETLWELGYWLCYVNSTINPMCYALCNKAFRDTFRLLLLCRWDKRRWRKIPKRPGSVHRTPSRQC

D(1B) dopamine receptor = D(1B) dopamine receptor (Rattus norvegicus, UniProt P25115); assay: In vitro binding affinity to cloned rat D5 receptor measured by displacement of radioligand [3H]SCH-23,982
[5] = biological target: Muscarinic acetylcholine receptor M1 (Homo sapiens, UniProt P11229); assay: as §1; remark: listed apart in the source
[6] = biological target: T1, 5-hydroxytryptamine receptor 1D; assay: Binding affinity to cloned human 5-hydroxytryptamine 1D receptor

D(1B) dopamine receptor, sequence (P25115 whole entry): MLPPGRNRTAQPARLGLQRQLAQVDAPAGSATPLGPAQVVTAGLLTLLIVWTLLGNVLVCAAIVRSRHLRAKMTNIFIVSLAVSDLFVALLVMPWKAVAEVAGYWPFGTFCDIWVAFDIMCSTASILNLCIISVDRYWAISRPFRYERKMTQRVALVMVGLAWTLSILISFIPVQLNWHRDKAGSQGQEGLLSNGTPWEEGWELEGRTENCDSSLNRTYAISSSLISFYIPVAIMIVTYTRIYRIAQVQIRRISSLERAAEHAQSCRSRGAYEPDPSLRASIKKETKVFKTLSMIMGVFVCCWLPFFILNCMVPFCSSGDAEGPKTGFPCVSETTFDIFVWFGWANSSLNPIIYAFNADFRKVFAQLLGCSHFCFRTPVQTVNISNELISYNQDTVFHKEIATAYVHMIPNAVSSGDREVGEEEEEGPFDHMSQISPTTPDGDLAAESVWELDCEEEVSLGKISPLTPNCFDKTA
T1 sequence (P28221 whole entry): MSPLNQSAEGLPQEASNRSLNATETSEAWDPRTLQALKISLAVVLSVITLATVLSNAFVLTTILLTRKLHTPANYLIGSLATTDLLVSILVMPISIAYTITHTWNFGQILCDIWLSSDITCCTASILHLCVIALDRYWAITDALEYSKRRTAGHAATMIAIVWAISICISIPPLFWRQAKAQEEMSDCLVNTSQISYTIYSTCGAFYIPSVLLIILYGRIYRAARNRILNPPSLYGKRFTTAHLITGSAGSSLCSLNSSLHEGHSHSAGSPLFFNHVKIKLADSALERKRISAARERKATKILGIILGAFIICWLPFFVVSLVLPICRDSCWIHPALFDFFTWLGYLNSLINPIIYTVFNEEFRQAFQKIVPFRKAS
D(3) dopamine receptor, sequence (P19020 whole entry): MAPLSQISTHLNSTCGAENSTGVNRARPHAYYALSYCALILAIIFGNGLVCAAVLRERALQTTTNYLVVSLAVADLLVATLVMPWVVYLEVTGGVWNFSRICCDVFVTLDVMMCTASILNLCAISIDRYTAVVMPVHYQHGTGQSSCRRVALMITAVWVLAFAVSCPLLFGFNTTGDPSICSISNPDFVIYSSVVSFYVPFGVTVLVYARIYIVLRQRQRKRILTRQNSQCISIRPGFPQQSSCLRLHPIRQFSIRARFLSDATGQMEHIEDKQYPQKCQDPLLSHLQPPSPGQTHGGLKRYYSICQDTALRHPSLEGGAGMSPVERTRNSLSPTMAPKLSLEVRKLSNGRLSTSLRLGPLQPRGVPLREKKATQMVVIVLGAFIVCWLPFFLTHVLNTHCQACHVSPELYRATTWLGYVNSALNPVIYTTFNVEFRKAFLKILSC

Structure (SMILES)	Ki (D(3) dopamine receptor) [µM]	Ki [1] [µM]	Ki [2] [µM]	Ki [3] [µM]	Ki [4] [µM]	Ki (D(1B) dopamine receptor) [µM]	Ki [5] [µM]	Ki [6] [µM]
c1ccc(-c2ccc(N3CCN(Cc4c[nH]c5ncccc45)CC3)cc2)cc1	> 10	> 10	> 10	> 10	> 10	> 10	–	–
CSc1ccc(N2CCN(Cc3c[nH]c4ncccc34)CC2)cc1	0.0457	> 10	> 10	> 10	–	> 10	> 10	–
COc1ccccc1N1CCN(Cc2c[nH]c3ncccc23)CC1	0.668	> 10	> 10	> 10	–	> 10	> 10	–
Fc1ccccc1N1CCN(Cc2c[nH]c3ncccc23)CC1	> 10	–	> 10	> 10	–	> 10	> 10	> 10
COc1ccc(N2CCN(Cc3c[nH]c4ncccc34)CC2)cc1	> 10	> 10	> 10	> 10	–	> 10	> 10	–
CCCc1ccc(N2CCN(Cc3c[nH]c4ncccc34)CC2)cc1	0.921	–	> 10	> 10	> 10	> 10	–	> 10
Fc1ccc(N2CCN(Cc3c[nH]c4ncccc34)CC2)cc1	> 10	–	> 10	> 10	–	> 10	> 10	> 10
CCc1ccc(N2CCN(Cc3c[nH]c4ncccc34)CC2)cc1	1.69	–	> 10	> 10	> 10	> 10	–	> 10
C=Cc1ccc(N2CCN(Cc3c[nH]c4ncccc34)CC2)cc1	> 10	–	> 10	> 10	> 10	> 10	–	> 10
